Where “and” joins values, the source holds several entries; their conditions need not be identical. Equal values may be shown once.
Experiments:
[1] = system: L-6 rat myoblast cells; test: Cytotoxicity assay; type: cell-based; settings: 72 h, read-out: IC50
Procedure: 10 µL of Alamar Blue was added for the final 3 h to determine viability. […] The IC50 values were calculated from the sigmoidal inhibition curves. For cytotoxicity, 4×10^4/mL L-6 rat skeletal myoblast cells were used, and incubations and assessments carried out as above.

[2] = system: rat hepatocytes; test: Hepatocyte intrinsic clearance and metabolite profile; type: in vitro ADME; settings: fexinidazole 10 µM
Procedure: (§1) Fexinidazole was incubated with cryopreserved hepatocytes from male CD-1 mice, male Sprague Dawley rats, male beagle dogs, male cynomolgus monkeys, and from pooled white or African-American human donor samples (purchased commercially), at concentrations of 1 µM and 10 µM. […] The incubated samples were analyzed by LC-MS after extraction into acetonitrile.
(§2) A quality control analysis of fexinidazole was performed via 1H-NMR in DMSO and LC- […]
(§3) provided by the Swiss Tropical Institute (Basel, Switzerland).
(§4) Reagents and solvents were of analytical grade and obtained from Sigma-Aldrich (St. Louis, […]
(§5) Cryopreserved hepatocytes from the male CD1 mouse, lot CSI; male Sprague Dawley rat, lot LPL; male beagle dog, lot BWX; male cynomolgus monkey, lot EHH; and pooled human samples, lot MJI, were purchased from In Vitro Technologies Inc (Baltimore, Maryland, […]
(§6) 5.4. In vitro Incubations
(§7) On the day of the experiment a 10 mM stock solution of fexinidazole in DMSO was prepared and, within 3 hours, aliquots of this freshly prepared solution, after suitable dilution, were added to the incubation matrix, to reach fexinidazole final concentrations of 1 and 10 µM. The final percentage of DMSO was 0.01% in the incubation samples for the […]
(§8) On the day of experiment, the cryopreserved hepatocytes were thawed following the detailed instructions provided by the supplier.
(§9) The number of viable cells was determined using a Trypan Blue exclusion method.
(§10) 5.4.1. Intrinsic Clearance Study […]
(§11) µM with mouse, rat, dog, monkey and human hepatocytes (300000 cells/mL for the mouse and 1 million cells/mL for the other species) in a final incubation volume of 0.75 mL […]
(§12) Incubations were performed in duplicate in a 48-well plate under shaking. Sampling was performed using an automatic liquid handling system (Multiprobe II EX, Packard). At 0, 1, 5, 10, 15, 20, 30, 60 and 120 minutes, 50 µL aliquots of the incubates were taken, then 80 µL of ice-cold acetonitrile and 20 µL of 1 µM warfarin in acetonitrile (internal standard) were added, and samples centrifuged at 2000 rpm for 20 min. The supernatant was analyzed by LC-MS/MS. […]
(§13) the medium alone at t = 0 and 120 minutes.
(§14) For the determination of phase I and phase II activity of hepatocytes, 7-ethoxycoumarin (7-EC) 1 µM, and 7-hydroxycoumarin (7-HC) 30 µM were used as positive controls and incubated under the same conditions as fexinidazole. Aliquots of incubates were taken at 0, 10, 20, 30, 60 and 120 minutes and processed as fexinidazole samples.
(§15) 5.4.2. Metabolite Profile Study
(§16) For metabolite profiling, fexinidazole was incubated at a concentration of 10 µM with mouse, rat, dog, monkey and human hepatocytes (300000 cells/mL for the mouse and 1 million cells/mL for the other species) in a final incubation volume of 2 mL Leibovitz L-15 […]
(§17) Aliquots of the incubation samples were taken at t = 0, 30 and 120 minutes; the metabolism was stopped by the addition of an equal volume of cold acetonitrile and the samples centrifuged at 1500 rpm for 20 min. The supernatant was stored at -20°C until analysis. Control incubations were performed with the compound in the medium alone […]
(§18) 5.5. Analysis of Samples for Intrinsic Clearance Determination
(§19) The analysis of the samples for intrinsic clearance determination was performed by an LC-MS/MS method, using the following conditions:
(§20) HPLC Equipment and Conditions
(§21) HPLC system Agilent 1100 binary pump (Agilent, Palo Alto, USA)
(§22) Autosampler CTC Pal (Alfatech, San Jose, USA)
(§23) Analytical column Guard Column SB-C8 4.6 x 12.5 mm, 5 µm (Zorbax)
(§24) Column temperature ambient
(§25) Mobile phase A 10 mM ammonium formate pH 4.0: acetonitrile (95:5, v:v)
(§26) Mobile phase B 10 mM ammonium formate pH 4.0: acetonitrile (5:95, v:v) […]
(§27) Gradient conditions Step Total time (min) flow (µL/min) %A % B […]
(§28) MS Equipment and Conditions
(§29) Mass spectrometer API 4000 Triple Quadrupole (MDS-Sciex, Toronto, […]
(§30) Source Turbo Ion Spray (TIS)
(§31) Ion mode Positive for fexinidazole and 7-EC.
(§32) Negative for 7-HC, 7-HC sulphate and 7-HC glucuronide.

[3] = system: human hepatocytes (pooled); test: as above; type: in vitro ADME; settings: for % of total drug related material: fexinidazole 10 µM
Procedure: as §1, §2, §3, §4, §5, §6, §7, §8, §9, §10, §11, §12, §13, §14, §15, §16, §17, §18, §19, §20, §21, §22, §23, §24, §25, §26, §27, §28, §29, §30, §31, §32

[4] = Lipophilicity (logD); type: physicochemical; settings: pH 7.4
[5] = Half-life after oral treatment across species; type: in vivo; settings: mouse, rat, dog, plasma, mice, rats and dogs

| SMILES | IC50 [1] | % of total drug related material ([2]; t=0) | t1/2 ([3]; 1 µM) | % of total drug related material ([3]; 30 min) | % of total drug related material ([3]; 120 min) | % of total drug related material ([3]; t=0) | logD [4] | half-life [5] | % of total drug related material ([2]; 30 min) | % of total drug related material ([2]; 120 min) |
| --- | --- | --- | --- | --- | --- | --- | --- | --- | --- | --- |
| CSc1ccc(OCc2ncc([N+](=O)[O-])n2C)cc1 [Fexinidazole, 1-methyl-2-((p-(methylthio)phenoxy)methyl)-5-nitroimidazole] | > 90 µg/mL and > 322 µM | 68% | 0.223 h | 2% | < 1% | 83% | 2.83 | 1 to 3 h |  |  |
| Cn1c([N+](=O)[O-])cnc1COc1ccc([S+](C)[O-])cc1 (stereo not drawn) [Fexinidazole sulfoxide] | > 90 µg/mL and > 305 µM | 32% |  | 96% | 95% | 17% | 0.52 | 2 to 7 h | 90% | 68% |
| Cn1c([N+](=O)[O-])cnc1COc1ccc(S(C)(=O)=O)cc1 [Fexinidazole sulfone] | > 90 µg/mL and > 289 µM |  |  | 2% | 4% |  | 0.74 | ≤ 24 h | 10% | 32% |

From PMC3006138, “Fexinidazole – A New Oral Nitroimidazole Drug Candidate Entering Clinical Development for the Treatment of Sleeping Sickness” (PLoS Neglected Tropical Diseases, 2010)
